Laboratory results reported in US5298414A (priority 1989, dated 1994).
Entries after “also recorded” stand apart in the source; their conditions may differ. Read-outs that look alike come from different tables or passages of the source.

Columns and labels:
[1] = molecular target: T1, morphine dehydrogenase (MDH) (Pseudomonas putida, UniProt Q02198); experiment: Cofactor requirement of MDH; assay type: biochemical, Pseudomonas putida MlO
[2] = molecular target: T1, morphine dehydrogenase (MDH); experiment: Substrate specificity of morphine dehydrogenase (Example 4); assay type: biochemical, Pseudomonas putida MlO; details: 0.35 μg purified enzyme, pH 9.5
[3] = molecular target: T1, morphine dehydrogenase (MDH); experiment: biochemical; assay type: biochemical, Pseudomonas putida MlO; details: for (b) Relative activity: 16 h at 4° C. then 10 min at 30° C., no addition gives 16
[4] = molecular target: T1, morphine dehydrogenase (MDH); experiment: Non-oxidation of steroids by morphine dehydrogenase (Example 2 standard assay); assay type: biochemical, Pseudomonas putida MlO; details: morphine replaced by the steroid in the standard assay
[5] = tested on: acetylmorphine carboxylesterase (AMCE); experiment: Substrate specificity of the AMCE (HPLC); assay type: biochemical, Rhodococcus Hl; details: substrate 1.0 mM, purified AMCE 5 U, potassium phosphate buffer pH 7.5, 30° C.
[6] = molecular target: T1, morphine dehydrogenase (MDH); assay type: biochemical, Pseudomonas putida MlO
[7] = tested on: washed cells of P. putida MlO; assay type: cell-based, Pseudomonas putida MlO
[8] = 10 min, read-out: (a) Relative activity
[9] = 16 h, read-out: (b) Relative activity

T1 sequence (Q02198 whole entry): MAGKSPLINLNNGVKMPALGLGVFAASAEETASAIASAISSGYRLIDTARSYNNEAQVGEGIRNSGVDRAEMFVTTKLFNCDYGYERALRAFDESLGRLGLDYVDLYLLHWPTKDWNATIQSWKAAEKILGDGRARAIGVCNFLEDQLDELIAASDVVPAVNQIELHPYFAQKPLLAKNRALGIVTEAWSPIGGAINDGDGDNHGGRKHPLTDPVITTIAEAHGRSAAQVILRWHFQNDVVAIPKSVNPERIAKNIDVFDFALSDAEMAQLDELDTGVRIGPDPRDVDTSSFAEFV

3-acetylpyridine ADP
operability as cofactor for MDH [1]: operable

O=C(O)C(O)c1ccccc1 (racemic) [D,L-mandelic acid]
activity relative to 3 mM morphine ([2]; final concentration 10 Mm): zero

O[C@H](CS)[C@H](O)CS (racemic) [Dithiothreitol]
activity at 1000 µM [3, 8]: 97%
activity at 1000 µM [3, 9]: 64%

C[C@]12CC[C@@H](O)C[C@@H]1CC[C@@H]1[C@@H]2CC[C@]2(C)C(=O)CC[C@@H]12 (stereo in doubt) [androsterone]
steroid dehydrogenase activity of MDH [4]: No steroid dehydrogenase activity was detected
activity relative to 3 mM morphine ([2]; final concentration 10 Mm): zero

c1cnc2c(c1)ccc1cccnc12 [1,10-Phenanthroline]
activity at 50 µM [3, 8]: 76%
activity at 500 µM [3, 8]: 61%
activity at 500 µM [3, 9]: 14%

c1ccc(-c2ccccn2)nc1 [2,2'-Dipyridyl]
activity at 50 µM [3, 8]: 75%
activity at 500 µM [3, 8]: 67%
activity at 500 µM [3, 9]: 9%

CC(=O)Oc1ccc2c3c1O[C@H]1[C@@H](O)C=C[C@H]4[C@@H](C2)N(C)CC[C@@]341 [3-acetylmorphine]
time taken to reduce the substrate concentration by 20% [5]: 2 min

CC(=O)O[C@H]1C=C[C@H]2[C@H]3Cc4ccc(O)c5c4[C@@]2(CCN3C)[C@H]1O5 [6-acetylmorphine]
time taken to reduce the substrate concentration by 20% [5]: 240 min
ability to serve as MDH substrate ([6]; pH 10): completely inactive; also recorded: no activity
activity relative to 3 mM morphine ([2]; alkaloid substrates 3 mM): zero

Oc1cccc2cccnc12 [8-Hydroxyquinoline]
(a) Relative activity ([3]; purified mdh, 10 min, 50 µM): 100%

O=S(=O)([O-])[O-].[Cu+2] [CuSO4]
(a) Relative activity ([3]; reagent 0.1 mM, 10 min at room temperature, 100% = 67 U/mg): 34%
(b) Relative activity ([3]; reagent 0.1 mM): 5%

O=C(O)CN(CCN(CC(=O)O)CC(=O)O)CC(=O)O [EDTA]
activity at 500 µM [3, 8]: 104%
activity at 500 µM [3, 9]: 18%

O=C(O)CI [Iodoacetate]
activity at 100 µM [3, 8]: 61%
activity at 1000 µM [3, 8]: 58%
activity at 10000 µM [3, 8]: 54%
activity at 10000 µM [3, 9]: 30%

OCCS [Mercaptoethanol]
activity at 1000 µM [3, 8]: 100%
activity at 1000 µM [3, 9]: 73%

CCN1C(=O)C=CC1=O [N-Ethylmaleimide]
activity at 50 µM [3, 8]: 100%
activity at 1000 µM [3, 8]: 58%
activity at 1000 µM [3, 9]: 23%

NC(=O)c1ccc[n+]([C@@H]2O[C@H](COP(=O)([O-])OP(=O)(O)OC[C@H]3O[C@@H](n4cnc5c(N)ncnc54)[C@H](OP(=O)(O)O)[C@@H]3O)[C@@H](O)[C@H]2O)c1 [NADP^+, nicotinamide adenine dinucleotide phosphate]
operability as cofactor for MDH [1]: absolute requirement

NC(=O)c1ccc[n+]([C@@H]2O[C@H](COP(=O)([O-])OP(=O)(O)OC[C@H]3O[C@@H](n4cnc5c(N)ncnc54)[C@H](O)[C@@H]3O)[C@@H](O)[C@H]2O)c1 [NAD^+]
operability as cofactor for MDH [1]: shown not to be a substrate; also recorded: have not been found to be operable

OCc1ccccc1 [benzyl alcohol]
activity relative to 3 mM morphine ([2]; alcohol substrates 50 mM): zero

CCC(C)O (stereo not drawn) [butan-2-ol]
activity relative to 3 mM morphine ([2]; alcohol substrates 50 mM): zero

COc1ccc2c3c1O[C@H]1[C@@H](O)C=C[C@H]4[C@@H](C2)N(C)CC[C@@]341 [codeine]
activity relative to morphine ([6]; pH 10): 1.7 times that of morphine
activity relative to 3 mM morphine ([2]; alkaloid substrates 3 mM): 120%
metabolism by washed cells grown on heroin [7]: readily metabolised

COc1ccc2c3c1O[C@H]1C(=O)C=C[C@H]4[C@@H](C2)N(C)CC[C@]314 [codeinone]
reverse direction reaction with NADPH [6]: catalysed the oxidation of NADPH
ability to serve as MDH substrate ([6]; pH 10): completely inactive

OC1CCCCC1 [cyclohexanol]
activity relative to 3 mM morphine ([2]; alcohol substrates 50 mM): zero

COc1ccc2c3c1O[C@H]1[C@@H](O)CC[C@H]4[C@@H](C2)N(C)CC[C@@]341 [dihydrocodeine]
ability to serve as MDH substrate ([6]; pH 10): completely inactive; also recorded: did not show any activity
activity relative to 3 mM morphine ([2]; alkaloid substrates 3 mM): 7.1%

CCO [ethanol]
ability to serve as MDH substrate [6]: negative result
ability to serve as MDH substrate ([6]; pH 10): completely inactive; also recorded: does not oxidise
activity relative to 3 mM morphine ([2]; alcohol substrates 50 mM): zero

CCOc1ccc2c3c1O[C@H]1[C@@H](O)C=C[C@H]4[C@@H](C2)N(C)CC[C@@]341 [ethylmorphine]
activity relative to morphine ([6]; pH 10): 1.2 times that of morphine
metabolism by washed cells grown on heroin [7]: readily metabolised

CN1CC[C@]23c4c5ccc(O[C@@H]6O[C@H](C(=O)O)[C@@H](O)[C@H](O)[C@H]6O)c4O[C@H]2[C@@H](O)C=C[C@H]3[C@H]1C5 [morphine glucuronide]
ability to serve as MDH substrate ([6]; pH 10): completely inactive; also recorded: Inactivity

CN1CC[C@]23c4c5ccc(O)c4O[C@H]2[C@@H](O)C=C[C@H]3[C@H]1C5 [morphine]
specific activity as MDH substrate ([6]; pH 10): 0.002 μmol/min./mg. protein
dehydrogenase activity ([2]; 3 mM substrate): 0.0252 μmol NADPH/min

COc1ccc2c3c1O[C@H]1C(=O)CC[C@@]4(O)[C@@H](C2)N(C)CC[C@]314 [oxycodone]
ability to serve as MDH substrate ([6]; pH 10): completely inactive; also recorded: no activity

O=C(O)c1cc[c]([Hg+])cc1.[OH-] [p-Hydroxymercuribenzoate]
(a) Relative activity ([3]; reagent 0.01 mM, 10 min at room temperature, 100% = 67 U/mg): 0%
(b) Relative activity ([3]; reagent 0.01 mM): 0%
activity recovered after incubation with 3 mM dithiothreitol for 10 min ([3]; reagent 0.01 mM, incubation (a)): 45%
activity recovered after incubation with 3 mM dithiothreitol for 10 min ([3]; reagent 0.01 mM, incubation (b)): 23%

CN1CC[C@]23c4c5ccc(OCCN6CCOCC6)c4O[C@H]2[C@@H](O)C=C[C@H]3[C@H]1C5 [pholcodeine]
ability to serve as MDH substrate ([6]; pH 10): completely inactive; also recorded: Inactivity

CC(C)O [propan-2-ol]
activity relative to 3 mM morphine ([2]; alcohol substrates 50 mM): zero

CCCO [propanol]
activity relative to 3 mM morphine ([2]; alcohol substrates 50 mM): zero

C[C@]12CC[C@H]3[C@@H](CCC4=CC(=O)CC[C@@]43C)[C@@H]1CC[C@@H]2O [testosterone]
steroid dehydrogenase activity of MDH [4]: No steroid dehydrogenase activity was detected
activity relative to 3 mM morphine ([2]; final concentration 10 Mm): zero

COC1=CC=C2[C@H]3Cc4ccc(OC)c5c4[C@@]2(CCN3C)[C@H]1O5 [thebaine]
ability to serve as MDH substrate ([6]; pH 10): completely inactive
metabolism by washed cells grown on heroin [7]: not degraded at all

nicotinamide hypoxanthine diphosphate
operability as cofactor for MDH [1]: have not been found to be operable
